Test [1] addresses T1, PPIP5K2^1-366 (human PPIP5K2 kinase domain) (Homo sapiens, UniProt O43314).
T1 construct: one comprised residues 1–366; made in house
T1 sequence (O43314 1-366): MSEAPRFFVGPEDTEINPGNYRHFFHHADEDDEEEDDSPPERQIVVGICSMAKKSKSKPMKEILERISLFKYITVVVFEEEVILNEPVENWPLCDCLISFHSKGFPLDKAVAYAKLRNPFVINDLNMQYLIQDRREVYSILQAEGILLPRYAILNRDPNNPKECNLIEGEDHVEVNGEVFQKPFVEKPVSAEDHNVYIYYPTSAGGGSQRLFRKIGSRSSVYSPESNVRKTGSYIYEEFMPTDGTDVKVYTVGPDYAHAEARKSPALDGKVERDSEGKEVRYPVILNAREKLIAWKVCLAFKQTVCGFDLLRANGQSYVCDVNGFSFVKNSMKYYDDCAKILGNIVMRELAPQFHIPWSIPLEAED
In words: Isothermal titration calorimetry of ligand binding to PPIP5K2KD. The settings on record: ITC, 25°C; for ΔH / ΔS: 7.5 μM PPIP5K2^1-366, 75 μM ligand, pH 7.2; for Kd: 7.5 μM PPIP5K2^1-366 in cell, 75 μM ligand in syringe, pH 7.2, 1mM AMP-PNP, 1mM MgCl2, read-out: Kd (apparent).
Source text: We next used isothermal titration calorimetry (ITC) to analyze the interactions of PPIP5K2^KD with 5PP-IP5 and each of the four analogs studied herein (Figure 5A-E). […] At the same time, the enthalpic gain for binding was largest for 5PCF2Am-IP5 and 5PA-IP5. A possible explanation may be that these two ligands are less strongly hydrated, due to their lower overall charge. The enthalpic cost for dehydration of 5PCF2Am-IP5 and 5PA-IP5 is therefore lower, compared to the other molecules, resulting in a higher enthalpic gain overall. A less strongly hydrated ligand will also release fewer water molecules upon binding, consistent with the lower entropic gains.
Figure 5 Analysis of ligand binding to the PPIP5K2^KD by ITC. Test solutions contained 7.5 μM of PPIP5K2^1-366 in the sample cell and 75 μM ligand in the syringe. Other details are provided in the Methods Section. Representative thermograms (1 of 3 replicates) are shown for titration of either (A) 5PP-IP5; (B) 5PCPF2P-IP5; (C) 5PCP-IP5; (D) 5PCF2Am-IP5; (E) 5PA-IP5. (F) Corresponding thermodynamic data. TEXT PRINTED IN THE PICTURE: (F) 5PP-: Kd (nM): 123 ± 13; ΔH (kJ/mol): -26 ± 2; ΔS (kJ/mol/deg): 0.046 ± 0.008 | (F) 5PCF2-: Kd (nM): 246 ± 10; ΔH (kJ/mol): -16 ± 1; ΔS (kJ/mol/deg): 0.072 ± 0.005 | (F) 5PCP-: Kd (nM): 100 ± 10; ΔH (kJ/mol): -20 ± 2; ΔS (kJ/mol/deg): 0.067 ± 0.016 | (F) 5PCF2-Am-: Kd (nM): 90 ± 13; ΔH (kJ/mol): -38 ± 2; ΔS (kJ/mol/deg): 0.007 ± 0.004 | (F) 5PA-: Kd (nM): 90 ± 7; ΔH (kJ/mol): -36 ± 3; ΔS (kJ/mol/deg): 0.013 ± 0.008 […]
(§1) Calorimetry experiments were performed using a MicroCal PEAQ-ITC (Malvern Panalytical) with 7.5 μM recombinant PPIP5K21-366 in the sample cell and 75 μM of ligand in the syringe, each of which was maintained at 25°C in buffer containing 20 mM HEPES, pH 7.2, 150 mM KCl, 0.05 mM EDTA, 1mM AMP-PNP, 1mM MgCl2 as indicated. The sample cell (volume = 204 μL) and the syringe were cleaned before each run. Thermograms were constructed from 13 injections, each of which involved 3 μL of ligand delivered for 6 s, with an equilibration time of 150-300 s between each injection. The stirring speed was set to 750 rpm. Data were fitted to a single binding site model using the analysis software provided by the manufacturer. At least three runs were performed for each condition.
Protein expression and purification.
Throughout the main text, PPIP5K2KD is deployed as an abbreviation for the human PPIP5K2 kinase domain. However, two different constructs were utilized, as described in the figure legends and within the Methods section below: one comprised residues 1–366 (PPIP5K21-366) and the other comprised residues 41–366 (PPIP5K241-366). Both constructs were expressed and purified as described previously.[6] The human DIPP1 construct (residues 1-148) was expressed and purified as described in [7]. […]
The molecular graphics representations wer e prepared with the program PyMol (Schrödinger, LLC). Atomic coordinates an d structure factors have been deposited with the Protein Data Bank with accession codes 8G9C, 8G9D, 8G9E.
PPIP5K2KD reverse kinase assay […]
Isothermal titration calorimetry
as §1, with “PPIP5K21–366” for “PPIP5K21-366”, “2 04 µL)” for “204 μL)”, “µL” for “μL”, “150 -300” for “150-300”, “cond ition. […]” for “condition.”
A general note: In ITC the heat of successive injections is recorded.

For test [2], the target named is T1, PPIP5K2^1-366 (human PPIP5K2 kinase domain). The settings on record: published value; read-out: IC50, inhibition of the reverse kinase activity of PPIP5K2KD; cited from earlier work.

The values that follow come from article PMC7615343, “Fluorination Influences the Bioisostery of Myo-Inositol Pyrophosphate Analogs” (Chemistry (Weinheim an der Bergstrasse, Germany), 2023).

SMILES strings stand for the structures.

Take `O=C(N[C@@H]1[C@@H](OP(=O)(O)O)[C@H](OP(=O)(O)O)[C@H](OP(=O)(O)O)[C@H](OP(=O)(O)O)[C@H]1OP(=O)(O)O)C(F)(F)P(=O)(O)O` [5PCF2Am-IP5]: in test [1], the ΔH is -9.08 ± 0.48 kcal/mol, the ΔS is recorded as 0.007 ± 0.004 kJ/mol/deg and the Kd came out at 90 ± 13 nM.
In the case of `O=P(O)(O)O[C@H]1[C@@H](OP(=O)(O)O)[C@H](OP(=O)(O)O)[C@@H](OP(=O)(O)OP(=O)(O)O)[C@H](OP(=O)(O)O)[C@H]1OP(=O)(O)O` [5PP-IP5, 5-diphosphoinositol pentakisphosphate], in test [1], the ΔH is -6.21 ± 0.48 kcal/mol, the ΔS worked out at 0.046 ± 0.008 kJ/mol/deg and the Kd came to 123 nM.
What is called IC50 is the point on the concentration scale where inhibition reaches its midpoint. On to `O=C(CP(=O)(O)O)O[C@@H]1[C@@H](OP(=O)(O)O)[C@H](OP(=O)(O)O)[C@H](OP(=O)(O)O)[C@H](OP(=O)(O)O)[C@H]1OP(=O)(O)O` [5PA-IP5], for which the IC50 in test [2] was 129 nM. In test [1], the ΔH was -8.6 ± 0.72 kcal/mol, the ΔS turned out to be 0.013 ± 0.008 kJ/mol/deg and the Kd was determined as 90 ± 7 nM.
